# Measurements: US20120040930A1, “TETRACYCLIC TERPENE SERIES COMPOUNDS, METHODS FOR PREPARING SAME, USES THEREOF AS MEDICINES AND PHARMACEUTICAL COMPOUNDS CONTAINING SAME” (priority 2005, published 2012)
# Where two headings read alike, the source gives them in different places.
# Biological target: T1, acetylcholinesterase (AChE) isolated from Electrophorus electricus (Electrophorus electricus, UniProt O42275)
# T1 construct: AChE isolated from Electrophorus electricus; from tissue
# Assay: biochemical
# [1] = AChE isolated from Electrophorus electricus, read-out: AChE IC50
# T1 sequence (O42275 24-633): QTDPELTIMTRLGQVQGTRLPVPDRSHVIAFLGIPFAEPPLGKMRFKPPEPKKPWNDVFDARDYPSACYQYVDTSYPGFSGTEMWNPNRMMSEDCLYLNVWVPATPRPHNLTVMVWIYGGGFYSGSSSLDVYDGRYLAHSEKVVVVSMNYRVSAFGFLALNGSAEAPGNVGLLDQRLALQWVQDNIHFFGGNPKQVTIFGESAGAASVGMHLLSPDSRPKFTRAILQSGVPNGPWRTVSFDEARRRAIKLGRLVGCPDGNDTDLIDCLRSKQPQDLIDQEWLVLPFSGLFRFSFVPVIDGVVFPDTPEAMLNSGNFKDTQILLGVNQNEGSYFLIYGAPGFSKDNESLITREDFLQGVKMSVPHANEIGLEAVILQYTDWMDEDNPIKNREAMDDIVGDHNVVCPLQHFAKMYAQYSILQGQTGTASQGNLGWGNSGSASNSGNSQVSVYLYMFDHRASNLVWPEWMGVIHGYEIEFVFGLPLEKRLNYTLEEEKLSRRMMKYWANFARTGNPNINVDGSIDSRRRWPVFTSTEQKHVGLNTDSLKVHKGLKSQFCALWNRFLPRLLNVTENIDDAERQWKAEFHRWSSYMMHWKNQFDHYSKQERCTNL
Compound,IC50 [1] [nM],also measured
"CC[C@H](C)C(=O)N[C@H]1CC=C2C[C@H]3C(=O)C[C@]4(C)[C@@H]([C@H](C)N(C)C)[C@H](O)C[C@@]4(C)[C@@H]3CC[C@H]2[C@]1(C)C=O [Compound 67, (20S)-10(9->1)-abeo-20-dimethylamino-3-((S)-2-methylbutyrylamino)-4α-formyl-4β,14α-dimethyl-5α,9β-pregn-1(10)-en-16α-ol-11-one]",> 100000,–
"CC[C@H](C)C(=O)N[C@H]1CCC23C[C@]24C(=O)C[C@]2(C)[C@@H]([C@H](C)N(C)C)[C@H](O)C[C@@]2(C)[C@@H]4CC[C@H]3[C@]1(C)CNCc1ccccc1 (stereo partly drawn) [Compound 62, (20S)-20-dimethylamino-3β-((S)-2-methylbutyrylamino)-9,19-cyclo-4α-benzylaminomethyl-4β,14α-dimethyl-5α,9β-pregnan-16α-ol-11-one]",≥ 100000,–
"CC[C@H](C)C(=O)N[C@H]1CCC23C[C@]24C(=O)C[C@]2(C)[C@@H]([C@H](C)N(C)C)[C@H](O)C[C@@]2(C)[C@@H]4CC[C@H]3[C@]1(C)CN (stereo partly drawn) [Compound 63, (20S)-20-dimethylamino-3β-((S)-2-methylbutyrylamino)-9,19-cyclo-4α-aminomethyl-4β,14α-dimethyl-5α,9β-pregnan-16α-ol-11-one]",637,–
"CCC(C)C1=NC2CCC34C[C@]35C(=O)C[C@]3(C)[C@@H]([C@H](C)N(C)C)[C@H](O)C[C@@]3(C)[C@@H]5CC[C@H]4[C@]2(C)CN1 (stereo partly drawn) [Compound 64, (20S)-20-dimethylamino-9,19-cyclo-4β,14α-dimethyl-(2-(S)-sec-butyl-5β-methyl-1,4,5,6-tetrahydro-pyrimidin-5-yl)-5α,9β-pregnan-16α-ol-11-one]",14,–
"CC[C@H](C)C(=O)N[C@H]1CC=C2C[C@H]3C(=O)C[C@]4(C)[C@@H]([C@H](C)N(C)C)[C@H](O)C[C@@]4(C)[C@@H]3CC[C@H]2[C@]1(C)/C=N/Cc1ccccc1 [Compound 68, (20S)-10(9->1)-abeo-20-dimethylamino-3-((S)-2-methylbutyrylamino)-4α-benzyliminomethyl-4β,14α-dimethyl-5α,9β-pregn-1(10)-en-16α-ol-11-one]",–,IC50 (read-out: AChE IC50): 780 nM
CC[C@H](C)C(=O)N[C@H]1CC=C2C[C@H]3C(=O)C[C@]4(C)[C@@H]([C@H](C)N(C)C)[C@H](OC(C)=O)C[C@@]4(C)[C@@H]3CC[C@H]2[C@]1(C)CO [Compound 65],–,IC50 (AChE IC50): 7940 nM
"CC(C)C(=O)N[C@H]1CCC23C[C@]24C(=O)C[C@]2(C)[C@@H]([C@H](C)N(C)C)[C@H](OC(=O)C(C)(C)C)C[C@@]2(C)[C@@H]4CC[C@H]3[C@]1(C)CNCc1ccccc1 (stereo partly drawn) [Compound 47, (20S)-3β-isobutyrylamino-20-dimethylamino-9,19-cyclo-4α-benzylaminomethyl-4β,14α-dimethyl-16α-pivalyl-5α,9β-pregnan-11-one]",20100,–
CC[C@H](C)C(=O)N[C@H]1CC=C2C[C@H]3C(=O)C[C@]4(C)[C@@H]([C@H](C)N(C)C)[C@H](OC(C)=O)C[C@@]4(C)[C@@H]3CC[C@H]2[C@]1(C)C=O [Compound 66],> 100000,–
"CC[C@H](C)C(=O)N[C@H]1CCC23C[C@]24C(=O)C[C@]2(C)[C@@H]([C@H](C)N(C)C)[C@H](OC(C)=O)C[C@@]2(C)[C@@H]4CC[C@H]3[C@]1(C)C=O (stereo partly drawn) [Compound 59, (20S)-16α-acetyl-3β-((S)-2-methylbutyrylamino)-20-dimethylamino-9,19-cyclo-4α-formyl-4β,14α-dimethyl-5α,9β-pregnan-11-one]",> 100000,–
"CC(C)C(=O)N[C@H]1CCC23C[C@]24C(=O)C[C@]2(C)[C@@H]([C@H](C)N(C)C)[C@H](O)C[C@@]2(C)[C@@H]4CC[C@H]3[C@]1(C)CNCc1ccccc1 (stereo partly drawn) [Compound 46, (20S)-20-dimethylamino-3β-(isobutyrylamino)-9,19-cyclo-4α-benzylaminomethyl-4β,14α-dimethyl-5α,9β-pregnan-16α-ol-11-one]",33900,–
CC(C)C(=O)N[C@H]1CC[C@]23CC24C(=O)C[C@]2(C)[C@@H]([C@H](C)N(C)C)[C@H](O)C[C@@]2(C)[C@@H]4CC[C@H]3[C@]1(C)CS (some centres unmarked) [Compound 76],43000,–
CC(=O)O[C@@H]1C[C@@]2(C)[C@@H]3CC[C@@H]4C(=CC[C@@H]5N=C(C(C)C)OC[C@]54C)C[C@H]3C(=O)C[C@]2(C)[C@H]1[C@H](C)N(C)C [Compound 40],–,IC50 (AChE IC50): 112 nM
"CC1=N[C@H]2CC=C3C[C@H]4C(=O)C[C@]5(C)[C@@H]([C@H](C)N(C)C)[C@H](O)C[C@@]5(C)[C@@H]4CC[C@H]3[C@]2(C)CO1 [Compound 8a, (20S)-10(9->1)abeo-4,14α-dimethyl-20-dimethylamino(2′-methyl-4′,4′-dihydro[3′,1′]oxazin)-5α,9-pregn-1(10)-en-16α-ol-11-one]",676,–
"CC(C)C1=NC2CCC34C[C@]35C(=O)C[C@]3(C)[C@@H]([C@H](C)N(C)C)[C@H](OC(=O)C(C)(C)C)C[C@@]3(C)[C@@H]5CC[C@H]4[C@]2(C)CN1 (stereo partly drawn) [Compound 52, (20S)-20-dimethylamino-9,19-cyclo-4β,14α-dimethyl-16α-pivalyl-(2′-isopropyl-1′/3′,3,29-tetrahydropyrimidine)-5α,9β-pregnan-11-one]",29,–
"C[C@@H]([C@H]1[C@H](O)C[C@@]2(C)[C@@H]3CC[C@@H]4C(=CC[C@@H]5N=C(c6ccccc6)OC[C@]54C)C[C@H]3C(=O)C[C@]12C)N(C)C [Compound 8b, (20S)-10(9->1)abeo-4,14α-dimethyl-20-dimethylamino(2′-phenyl-4′,4′-dihydro[3′,1′]oxazin)-5α,9-pregn-1(10)-en-16α-ol-11-one]",–,IC50 (read-out: AChE IC50): 7650 nM
"(20S)-3β-isobutyrylamino-20-methylamino-9,19-cyclo-4α-benzylaminomethyl-4β,14α-dimethyl-16α-pivalyl-5α,9β-pregnan-11-one [Compound 48]",17500,–
"CC[C@H](C)C1=N[C@H]2CC=C3C[C@H]4C(=O)C[C@]5(C)[C@@H]([C@H](C)N(C)C)[C@H](O)C[C@@]5(C)[C@@H]4CC[C@H]3[C@]2(C)CN1 [Compound 71, (20S)-10(9->1)-abeo-20-dimethylamino-4β,14α-dimethyl-(2-(S)-sec-butyl-5β-methyl-1,4,5,6-tetrahydro-pyrimidin-5-yl)-5α,9β-pregnan-1(10)-en-16α-ol-11-one]",–,IC50 (read-out: AChE IC50): 28 nM
"CC(C)C(=O)N[C@H]1CCC23C[C@@]24[C@@H](CC[C@H]3[C@]1(C)CO)[C@]1(C)C[C@@H](O)[C@H]([C@H](C)N(C)C)[C@@]1(C)C[C@@H]4O (stereo partly drawn) [Compound 34, (20S)-20-dimethylamino-3β-(isobutyrylamino)-9,19-cyclo-4α-hydroxymethyl-4β,14α-dimethyl-5α,9β-pregnan-11β,16α-diol-11-one]",> 100000,–
"CN[C@@H](C)[C@H]1[C@H](O)C[C@@]2(C)[C@@H]3CC[C@@H]4C(=CCC5N=C(C(C)C)OC[C@]54C)C[C@H]3C(=O)C[C@]12C (stereo partly drawn) [Compound 33, (20S)-10(9->1)abeo-20-methylamino-4β,14α-dimethyl-(2′-isopropyl-3,29-dihydro-4H-[1,3]-oxazine)-5α,9β-pregn-1(10)-en-16α-ol-11-one]",106,–
"CC(C)[C@H]1N[C@H]2CC=C3C[C@H]4C(=O)C[C@]5(C)[C@@H]([C@H](C)N(C)C)[C@H](O)C[C@@]5(C)[C@@H]4CC[C@H]3[C@]2(C)CO1 [Compound 12, (20S)-10(9->1)abeo-4,14α-dimethyl-20-dimethylamino(2′β-isopropyl-1′,2′,4′,4′-tetrahydro[3′,1′]oxazin)-5α,9-pregn-1(10)-en-16α-ol-11-one]",823,–
"CC(=O)OC[C@]1(C)[C@@H](NC(=O)C(C)C)CCC23C[C@]24C(=O)C[C@]2(C)[C@@H]([C@H](C)N(C)C)[C@H](O)C[C@@]2(C)[C@@H]4CC[C@H]31 (stereo partly drawn) [Compound 41, (20S)-3β-isobutyrylamino-20-dimethylamino-9,19-cyclo-4β,14α-dimethyl-4α-acetylmethyl-5α,9β-pregnan-16α-ol-11-one]",> 100000,–
"CC(=O)OC[C@]1(C)[C@@H](NC(=O)C(C)C)CCC23C[C@]24C(=O)C[C@]2(C)[C@@H]([C@H](C)N(C)C)[C@H](OC(C)=O)C[C@@]2(C)[C@@H]4CC[C@H]31 (stereo partly drawn) [Compound 42, (20S)-16α-acetyl-3β-isobutyrylamino-20-dimethylamino-9,19-cyclo-4β,14α-dimethyl-4α-acetylmethyl-5α,9β-pregnan-11-one]",> 100000,–
"CC(C)C(=O)N[C@H]1CCC23C[C@]24C(=O)C[C@]2(C)[C@@H]([C@H](C)N(C)C)[C@H](O)C[C@@]2(C)[C@@H]4CC[C@H]3[C@]1(C)C=O (stereo partly drawn) [Compound 44, (20S)-3β-isobutyrylamino-20-dimethylamino-9,19-cyclo-4β,14α-dimethyl-4α-formyl-5α,9β-pregnan-16α-ol-11-one]",> 100000,–
"CC(C)C(=O)N[C@H]1CCC23C[C@]24C(=O)C[C@]2(C)[C@@H]([C@H](C)N(C)C)[C@H](O[Si](C)(C)C(C)(C)C)C[C@@]2(C)[C@@H]4CC[C@H]3[C@]1(C)CNC([Si](C)(C)C)[Si](C)(C)C (stereo partly drawn) [Compound 57, (20S)-3β-isobutyrylamino-20-dimethylamino-9,19-cyclo-4β,14α-dimethyl-4α-(bis-(trimethylsilanyl)methylamino)methyl-16α-(tert-butyl-dimethyl-silanyloxy)-5α,9β-pregnan-11-one]",> 100000,–
"CC[C@H](C)C(=O)N[C@H]1CC=C2C[C@H]3C(=O)C[C@]4(C)[C@@H]([C@H](C)N(C)C)[C@H](O)C[C@@]4(C)[C@@H]3CC[C@H]2[C@]1(C)CN [Compound 70, (20S)-10(9->1)-abeo-20-dimethylamino-3-((S)-2-methylbutyrylamino)-4α-aminomethyl-4β,14α-dimethyl-5α,9β-pregn-1(10)-en-16α-ol-11-one]",–,IC50 (read-out: AChE IC50): 368 nM
"CC(C)C1=N[C@H]2CC=C3C[C@H]4C(=O)C[C@]5(C)[C@@H]([C@H](C)N(C)C)[C@H](OC(=O)C(C)(C)C)C[C@@]5(C)[C@@H]4CC[C@H]3[C@]2(C)CO1 [Compound 39, (20S)-10(9->1)abeo-20-dimethylamino-4β,14α-dimethyl-16α-pivalyl-(2′-isopropyl-3,29-dihydro-4H-[1,3]-oxazine)-5α,9β-pregn-1(10)-en-11-one]",–,IC50 (AChE IC50): 198 nM
